Laboratory results: ChEMBL document CHEMBL1201862, “PubChem BioAssay data set” (2004)
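Cells were grown in 96-well plates and exposed to each compound for 48 hours at five concentrations; endpoints were interpolated linearly between bracketing concentrations, or set to the highest concentration if not reached. GI50 is the concentration that inhibits growth by half.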 Activity calls are given as the source filed them. Cut-off read from the data, not from the text of the source: active = GI50 up to about 1.1 µM and inactive = higher.

Experiments:
Assay in all cases: NCI-60 cell line screen, 48 h
786-0 = system: 786-0
A498 = system: A498
A549 = system: A549
ACHN = system: ACHN
BT-549 = system: BT-549
CAKI-1 = system: CAKI-1
CCRF-CEM = system: CCRF-CEM
COLO 205 = system: COLO 205
DU-145 = system: DU-145
EKVX = system: EKVX
HCC 2998 = system: HCC 2998
HCT-116 = system: HCT-116
HCT-15 = system: HCT-15
HL-60 = system: HL-60
HOP-62 = system: HOP-62
HOP-92 = system: HOP-92
HT-29 = system: HT-29
Hs-578T = system: Hs-578T
IGROV-1 = system: IGROV-1
K562 = system: K562
KM12 = system: KM12
LOX IMVI = system: LOX IMVI
M14 = system: M14
MCF7 = system: MCF7
MDA-MB-231 = system: MDA-MB-231
MDA-MB-435 = system: MDA-MB-435
MOLT-4 = system: MOLT-4
Malme-3M = system: Malme-3M
NCI-H226 = system: NCI-H226
NCI-H23 = system: NCI-H23
NCI-H460 = system: NCI-H460
NCI-H522 = system: NCI-H522
NCI/ADR-RES = system: NCI/ADR-RES
OVCAR-3 = system: OVCAR-3
OVCAR-4 = system: OVCAR-4
OVCAR-5 = system: OVCAR-5
OVCAR-8 = system: OVCAR-8
PC-3 = system: PC-3
RPMI-8226 = system: RPMI-8226
RXF 393 = system: RXF 393
SF-268 = system: SF-268
SF-295 = system: SF-295
SF-539 = system: SF-539
SK-MEL-28 = system: SK-MEL-28
SK-MEL-2 = system: SK-MEL-2
SK-MEL-5 = system: SK-MEL-5
SK-OV-3 = system: SK-OV-3
SN12C = system: SN12C
SNB-19 = system: SNB-19
SNB-75 = system: SNB-75
SR = system: SR
SW-620 = system: SW-620
T47D = system: T47D
TK-10 = system: TK-10
U-251 = system: U-251
UACC-257 = system: UACC-257
UACC-62 = system: UACC-62
UO-31 = system: UO-31
MDA-N = system: MDA-N

Question: Which results are given for NC(Cc1n[nH]c2ccccc12)C(=O)O (stereo not drawn)?
Answer: GI50 (786-0): > 100 µM (inactive); GI50 (A498): > 100 µM (inactive); GI50 (A549): > 100 µM (inactive); GI50 (ACHN): > 100 µM (inactive); GI50 (BT-549): > 100 µM (inactive); GI50 (CAKI-1): > 100 µM (inactive); GI50 (CCRF-CEM): > 100 µM (inactive); GI50 (COLO 205): > 100 µM (inactive); GI50 (DU-145): > 100 µM (inactive); GI50 (EKVX): > 100 µM (inactive); GI50 (HCC 2998): > 100 µM (inactive); GI50 (HCT-116): > 100 µM (inactive); GI50 (HCT-15): > 100 µM; GI50 (HL-60): > 100 µM (inactive); GI50 (HOP-62): > 100 µM (inactive); GI50 (HOP-92): > 100 µM (inactive); GI50 (HT-29): > 100 µM (inactive); GI50 (Hs-578T): > 100 µM (inactive); GI50 (IGROV-1): > 100 µM (inactive); GI50 (K562): > 100 µM (inactive); GI50 (KM12): > 100 µM (inactive); GI50 (LOX IMVI): > 100 µM (inactive); GI50 (M14): > 100 µM (inactive); GI50 (MCF7): > 100 µM (inactive); GI50 (MDA-MB-231): > 100 µM (inactive); GI50 (MDA-MB-435): > 100 µM (inactive); GI50 (MOLT-4): > 100 µM (inactive); GI50 (Malme-3M): > 100 µM (inactive); GI50 (NCI-H226): > 100 µM (inactive); GI50 (NCI-H23): > 100 µM (inactive); GI50 (NCI-H460): > 100 µM (inactive); GI50 (NCI-H522): > 100 µM (inactive); GI50 (NCI/ADR-RES): > 100 µM (inactive); GI50 (OVCAR-3): > 100 µM (inactive); GI50 (OVCAR-4): > 100 µM (inactive); GI50 (OVCAR-5): > 100 µM (inactive); GI50 (OVCAR-8): > 100 µM (inactive); GI50 (PC-3): > 100 µM (inactive); GI50 (RPMI-8226): > 100 µM (inactive); GI50 (RXF 393): > 100 µM (inactive); GI50 (SF-268): > 100 µM (inactive); GI50 (SF-295): > 100 µM (inactive); GI50 (SF-539): > 100 µM (inactive); GI50 (SK-MEL-28): > 100 µM (inactive); GI50 (SK-MEL-2): 0.104 µM (active); GI50 (SK-MEL-5): > 100 µM (inactive); GI50 (SK-OV-3): > 100 µM (inactive); GI50 (SN12C): > 100 µM (inactive); GI50 (SNB-19): > 100 µM (inactive); GI50 (SNB-75): > 100 µM (inactive); GI50 (SR): > 100 µM (inactive); GI50 (SW-620): > 100 µM (inactive); GI50 (T47D): > 100 µM (inactive); GI50 (TK-10): > 100 µM (inactive); GI50 (U-251): > 100 µM (inactive); GI50 (UACC-257): > 100 µM (inactive); GI50 (UACC-62): > 100 µM (inactive); GI50 (UO-31): > 100 µM (inactive)

Question: What does the source list for Cc1c2ccccc2c(C2C3C(=O)N(c4ccc(Br)cc4)C(=O)C3ON2C(C(N)=O)c2ccccc2)c2ccccc12 (stereo not drawn)?
Answer: GI50 (786-0): 5.5 µM (inactive); GI50 (A498): 2.98 µM (inactive); GI50 (A549): 3.64 µM (inactive); GI50 (ACHN): 4.12 µM (inactive); GI50 (BT-549): 7.29 µM (inactive); GI50 (CAKI-1): 3.67 µM (inactive); GI50 (CCRF-CEM): 3.18 µM (inactive); GI50 (COLO 205): 1.77 µM (inactive); GI50 (DU-145): 6.43 µM (inactive); GI50 (EKVX): 5.28 µM (inactive); GI50 (HCC 2998): 12.1 µM (inactive); GI50 (HCT-116): 4.37 µM (inactive); GI50 (HCT-15): 3.88 µM; GI50 (HL-60): 3.81 µM (inactive); GI50 (HOP-62): 8.99 µM (inactive); GI50 (HOP-92): 9.4 µM (inactive); GI50 (HT-29): 2.58 µM (inactive); GI50 (IGROV-1): 3.4 µM (inactive); GI50 (K562): 4.11 µM (inactive); GI50 (KM12): 4.11 µM (inactive); GI50 (LOX IMVI): 4.97 µM (inactive); GI50 (M14): 5.69 µM (inactive); GI50 (MCF7): 4.43 µM (inactive); GI50 (MDA-MB-435): 3.13 µM (inactive); GI50 (MDA-N): 4.86 µM (inactive); GI50 (MOLT-4): 4.05 µM (inactive); GI50 (Malme-3M): 3.78 µM (inactive); GI50 (NCI-H226): 5.3 µM (inactive); GI50 (NCI-H23): 5.56 µM (inactive); GI50 (NCI-H460): 3.56 µM (inactive); GI50 (NCI-H522): 2.79 µM (inactive); GI50 (NCI/ADR-RES): 4.39 µM (inactive); GI50 (OVCAR-3): 3.01 µM (inactive); GI50 (OVCAR-4): 4.94 µM (inactive); GI50 (OVCAR-5): 5.6 µM (inactive); GI50 (OVCAR-8): 6.78 µM (inactive); GI50 (PC-3): 4.86 µM (inactive); GI50 (RPMI-8226): 1.89 µM (inactive); GI50 (RXF 393): 11.7 µM (inactive); GI50 (SF-268): 9.14 µM (inactive); GI50 (SF-295): 6.59 µM (inactive); GI50 (SF-539): 4.13 µM (inactive); GI50 (SK-MEL-28): 17.9 µM (inactive); GI50 (SK-MEL-2): 5.62 µM (inactive); GI50 (SK-MEL-5): 3.1 µM (inactive); GI50 (SK-OV-3): 11.7 µM (inactive); GI50 (SN12C): 5.3 µM (inactive); GI50 (SNB-19): 4.8 µM (inactive); GI50 (SNB-75): 5.02 µM (inactive); GI50 (SW-620): 3.98 µM (inactive); GI50 (T47D): 3.18 µM (inactive); GI50 (U-251): 2.69 µM (inactive); GI50 (UACC-257): 7.08 µM (inactive); GI50 (UACC-62): 9.35 µM (inactive); GI50 (UO-31): 10 µM (inactive)
